Source: US11130769B2 (Prelude Therapeutics Incorporated, priority 2018, dated 2021)
Where two headings read alike, the source gives them in different places.

Key:
H929 cells = experiment: Cell viability assay (H929 10 FBS); format: cell-based; conditions: read-out: H929_10FBS IC50
Outline: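 ATP-based luminescence (CellTiter-Glo or ATPlite 1 Step, 30-60 min at RT) gauged viability of H929 myeloma cells after 24 h compound treatment at 37 °C. Cells plated at 4000 per well in 10% FBS RPMI 1640 supplemented with pyruvate, HEPES and glucose.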

MCL-1 = MCL-1 (Homo sapiens (Human), UniProt Q07820); experiment: Cell free Mcl-1:Bim affinity assay (fluorescence polarization competition); format: binding; conditions: 15 nM MCL-1, 5 nM FITC-Bim, 1 hour at room temperature, read-out: BIM_Ki
Outline: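 Fluorescence polarization competition: 10-point 3-fold compound dilutions displaced 5 nM FITC-Bim from 15 nM MCL-1 over 1 h at room temperature. Ki was derived from the fitted IC50 using the Nikolovska-Coleska equation, with percent inhibition normalized to DMSO and positive controls.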

[1] = Homo sapiens, NCI-H929, 24 hours

MCL-1, sequence (Q07820 whole entry): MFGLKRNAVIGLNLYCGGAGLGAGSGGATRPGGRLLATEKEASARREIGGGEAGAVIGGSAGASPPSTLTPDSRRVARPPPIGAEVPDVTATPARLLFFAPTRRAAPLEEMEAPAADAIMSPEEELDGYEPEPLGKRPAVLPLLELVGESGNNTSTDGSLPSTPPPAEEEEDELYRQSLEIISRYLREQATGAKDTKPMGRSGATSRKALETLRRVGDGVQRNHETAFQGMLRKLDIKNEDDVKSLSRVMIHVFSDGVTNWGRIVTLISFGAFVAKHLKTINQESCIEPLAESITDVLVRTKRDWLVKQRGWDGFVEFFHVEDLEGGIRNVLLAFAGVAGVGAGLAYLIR

Row | Compound | IC50 (H929 cells; [1]) | Ki (MCL-1; class symbols) | Ki (MCL-1; numeric values) | IC50 (H929 cells; 24 hours)
1 | CO[C@@H]1/C=C/CCC2(CC2)C(=O)NS(=O)(=O)c2ccc3c(c2)N(C[C@@H]2CC[C@H]21)C[C@@]1(CCCc2cc(Cl)ccc21)CO3 [Example 69, (3R,6R,7R,8E,22S)-6′-Chloro-7-methoxy-12,12-ethylene-15,15-dioxo-spiro[[20]oxa[15]thia-1,14-diazatetracyclo[14.7.2.03,6.019,24]pentacosa[8,16(25),17,19(24)]tetraene-22,1′-tetralin]-13-one] | – | 1 to 100 nM | – | > 1000 nM
2 | CN(C)C(=O)CO[C@@H]1/C=C/COC(C)(C)C(=O)NS(=O)(=O)c2ccc3c(c2)N(C[C@@H]2CC[C@H]21)C[C@@]1(CCCc2cc(Cl)ccc21)CO3 [Example 141, 2-[(3R,6R,7R,8E,22S)-6′-Chloro-12,12-dimethyl-13,15,15-trioxo-spiro[11,20-dioxa-15-thia-1,14-diazatetracyclo[14.7.2.03,6.019,24]pentacosa-8,16,18,24-tetraene-22,1′-tetralin]-7-yl]oxy-N,N-dimethyl-acetamide] | < 500 nM | < 1 nM | – | –
3 | CO[C@H]1/C=C/CNC(C)(C)C(=O)NS(=O)(=O)c2ccc3c(c2)N(C[C@@H]2CC[C@H]21)C[C@@]1(CCCc2cc(Cl)ccc21)CO3 [Example 136, (3R,6R,7S,8E,22S)-6′-Chloro-7-methoxy-12,12-dimethyl-15,15-dioxo-spiro[20-oxa-15-thia-1,11,14-triazatetracyclo[14.7.2.03,6.019,24]pentacosa-8,16,18,24-tetraene-22,1′-tetralin]-13-one] | > 1000 nM | 1 to 100 nM | – | –
4 | COCCN(C)C(=O)O[C@H]1/C=C/COC(C)(C)C(=O)NS(=O)(=O)c2ccc3c(c2)N(C[C@@H]2CC[C@H]21)C[C@@]1(CCCc2cc(Cl)ccc21)CO3 [Example 159, [(3R,6R,7S,8E,22S)-6′-Chloro-12,12-dimethyl-13,15,15-trioxo-spiro[11,20-dioxa-15-thia-1,14-diazatetracyclo[14.7.2.03,6.019,24]pentacosa-8,16,18,24-tetraene-22,1′-tetralin]-7-yl] N-(2-methoxyethyl)-N-methyl-carbamate] | < 500 nM | < 1 nM | – | –
5 | CN(C(=O)O[C@H]1/C=C/COC2(CCC2)C(=O)NS(=O)(=O)c2ccc3c(c2)N(C[C@@H]2CC[C@H]21)C[C@@]1(CCCc2cc(Cl)ccc21)CO3)C1COC1 [Example 235, [(3R,6R,7S,8E,22S)-6′-Chloro-12,12-(1,3-propylene)-13,15,15-trioxo-spiro[11,20-dioxa-15-thia-1,14-diazatetracyclo[14.7.2.03,6.019,24]pentacosa-8,16,18,24-tetraene-22,1′-tetralin]-7-yl] N-methyl-N-(oxetan-3-yl)carbamate] | < 500 nM | < 1 nM | – | –
6 | CO[C@@H]1/C=C/CO[C@H](C)C(=O)NS(=O)(=O)c2ccc3c(c2)N(C[C@@H]2CC[C@H]21)C[C@@]1(CCCc2cc(Cl)ccc21)CO3 [Example 115, (3R,6R,7R,8E,12R,22S)-6′-Chloro-7-methoxy-12-methyl-15,15-dioxo-spiro[11,20-dioxa-15-thia-1,14-diazatetracyclo[14.7.2.03,6.019,24]pentacosa-8,16,18,24-tetraene-22,1′-tetralin]-13-one] | > 1000 nM | 1 to 100 nM | – | –
7 | [2H]C([2H])([2H])N1C/C=C/[C@H](OC(=O)N(C)C)[C@@H]2CC[C@H]2CN2C[C@@]3(CCCc4cc(Cl)ccc43)COc3ccc(cc32)S(=O)(=O)NC(=O)C1(C)C [Example 45, [(3R,6R,7S,8E,22S)-6′-Chloro-12,12-dimethyl-13,15,15-trioxo-11-(trideuteriomethyl)spiro[20-oxa-15-thia-1,11,14-triazatetracyclo[14.7.2.03,6.019,24]pentacosa-8,16,18,24-tetraene-22,1′-tetralin]-7-yl] N,N-dimethylcarbamate] | < 500 nM | < 1 nM | – | –

More lines, main results first:

Row | IC50 (H929 cells; [1]) | Ki (MCL-1; class symbols) | Ki (MCL-1; numeric values) | Compound | IC50 (H929 cells; 24 hours)
8 | < 500 nM | < 1 nM | – | CCO[C@H]1CCN(C(=O)O[C@H]2/C=C/COC(C)(C)C(=O)NS(=O)(=O)c3ccc4c(c3)N(C[C@@H]3CC[C@H]32)C[C@@]2(CCCc3cc(Cl)ccc32)CO4)C1 [Example 162, [(3R,6R,7S,8E,22S)-6′-Chloro-12,12-dimethyl-13,15,15-trioxo-spiro[11,20-dioxa-15-thia-1,14-diazatetracyclo[14.7.2.03,6.019,24]pentacosa-8,16,18,24-tetraene-22,1′-tetralin]-7-yl] (3S)-3-ethoxypyrrolidine-1-carboxylate] | –
9 | > 1000 nM | 1 to 100 nM | – | CO[C@@H]1/C=C/C[C@H](C)CC(=O)NS(=O)(=O)c2ccc3c(c2)N(C[C@@H]2CC[C@H]21)C[C@@]1(CCCc2cc(Cl)ccc21)CO3 [Example 71, (3R,6R,7R,8E,11S,22S)-6′-Chloro-7-methoxy-11-methyl-15,15-dioxo-spiro[20-oxa-15-thia-1,14-diazatetracyclo[14.7.2.03,6.019,24]pentacosa-8,16(25),17,19(24)-tetraene-22,1′-tetralin]-13-one] | –
10 | < 500 nM | < 1 nM | – | CC1(C)OC/C=C/[C@H](OCC(=O)N2CCC2)[C@@H]2CC[C@H]2CN2C[C@@]3(CCCc4cc(Cl)ccc43)COc3ccc(cc32)S(=O)(=O)NC1=O [Example 279, (3R,6R,7S,8E,22S)-7-[2-(Azetidin-1-yl)-2-oxo-ethoxy]-6′-chloro-12,12-dimethyl-15,15-dioxo-spiro[11,20-dioxa-15-thia-1,14-diazatetracyclo[14.7.2.03,6.019,24]pentacosa-8,16,18,24-tetraene-22,1′-tetralin]-13-one] | –
11 | > 1000 nM | 1 to 100 nM | – | CO[C@@H]1/C=C/COC2(CCC2)C(=O)NS(=O)(=O)c2ccc3c(c2)N(C[C@@H]2CC[C@H]21)C[C@@]1(CCCc2cc(Cl)ccc21)CO3 [Example 31, (3R,6R,7R,8E,22S)-6′-Chloro-7-methoxy-12,12-(1,3-propylene)-15,15-dioxo-spiro[11,20-dioxa-15-thia-1,14-diazatetracyclo[14.7.2.03,6.019,24]pentacosa[8,16(25),17,19(24)]tetraene-22,1′-tetralin]-13-one] | –
12 | > 1000 nM | 1 to 100 nM | – | CO[C@H]1/C=C/C[C@@H](C)CC(=O)NS(=O)(=O)c2ccc3c(c2)N(C[C@@H]2CC[C@H]21)C[C@@]1(CCCc2cc(Cl)ccc21)CO3 [Example 84, (3R,6R,7S,8E,11R,22S)-6′-Chloro-7-methoxy-11-methyl-15,15-dioxo-spiro[20-oxa-15-thia-1,14-diazatetracyclo[14.7.2.03,6.019,24]pentacosa-8,16(25),17,19(24)-tetraene-22,1′-tetralin]-13-one] | –
13 | > 1000 nM | 1 to 100 nM | – | CO[C@H]1CCCCC(=O)NS(=O)(=O)c2ccc3c(c2)N(C[C@@H]2CC[C@H]21)C[C@@]1(CCCc2cc(Cl)ccc21)CO3 [Example 77, (3R,6R,7S,21S)-6′-Chloro-7-methoxy-14,14-dioxo-spiro[19-oxa-14-thia-1,13-diazatetracyclo[13.7.2.03,6.018,23]tetracosa-15,17,23-triene-21,1′-tetralin]-12-one] | –
14 | > 1000 nM | – | 22 nM | O=C(NS(=O)(=O)c1ccc2c(c1)N(CC1CCC1)C[C@@]1(CCCc3cc(Cl)ccc31)CO2)C1CCCC1 [Example 13, N-[(3S)-6′-Chloro-5-(cyclobutylmethyl)spiro[2,4-dihydro-1,5-benzoxazepine-3,1′-tetralin]-7-yl]sulfonylcyclopentanecarboxamide] | –
15 | < 500 nM | < 1 nM | – | CO[C@H]1CCN(C(=O)O[C@H]2/C=C/COC(C)(C)C(=O)NS(=O)(=O)c3ccc4c(c3)N(C[C@@H]3CC[C@H]32)C[C@@]2(CCCc3cc(Cl)ccc32)CO4)C1 [Example 195, [(3R,6R,7S,8E,22S)-6′-Chloro-12,12-dimethyl-13,15,15-trioxo-spiro[11,20-dioxa-15-thia-1,14-diazatetracyclo[14.7.2.03,6.019,24]pentacosa-8,16,18,24-tetraene-22,1′-tetralin]-7-yl] (3S)-3-methoxypyrrolidine-1-carboxylate] | –
16 | < 1000 nM | < 1 nM | – | COC[C@H]1CCCN1C(=O)O[C@H]1/C=C/COC(C)(C)C(=O)NS(=O)(=O)c2ccc3c(c2)N(C[C@@H]2CC[C@H]21)C[C@@]1(CCCc2cc(Cl)ccc21)CO3 [Example 161, [(3R,6R,7S,8E,22S)-6′-Chloro-12,12-dimethyl-13,15,15-trioxo-spiro[11,20-dioxa-15-thia-1,14-diazatetracyclo[14.7.2.03,6.019,24]pentacosa-8,16,18,24-tetraene-22,1′-tetralin]-7-yl] (2R)-2-(methoxymethyl)pyrrolidine-1-carboxylate] | –
17 | < 500 nM | < 1 nM | – | C[C@@H]1CN(C(=O)O[C@H]2/C=C/COC(C)(C)C(=O)NS(=O)(=O)c3ccc4c(c3)N(C[C@@H]3CC[C@H]32)C[C@@]2(CCCc3cc(Cl)ccc32)CO4)CCN1 [Example 175, [(3R,6R,7S,8E,22S)-6′-Chloro-12,12-dimethyl-13,15,15-trioxo-spiro[11,20-dioxa-15-thia-1,14-diazatetracyclo[14.7.2.03,6.019,24]pentacosa-8,16,18,24-tetraene-22,1′-tetralin]-7-yl] (3R)-3-methylpiperazine-1-carboxylate] | –
18 | > 1000 nM | – | 6 nM | O=C(NS(=O)(=O)c1ccc2c(c1)N(CC1CCC1)CC1(CCCc3cc(Cl)ccc31)CO2)N1CCCC1 (stereo not drawn) [Example 24, N-[6′-Chloro-5-(cyclobutylmethyl)spiro[2,4-dihydro-1,5-benzoxazepine-3,1′-tetralin]-7-yl]sulfonylpyrrolidine-1-carboxamide] | –
